From patent EP0705259B1, “PHENYRROLE DERIVATIVES AND THEIR USE AS DOPAMINE D3 ANTAGONISTS” (SMITHKLINE BEECHAM PLC, priority 1993, dated 1995)
Where a name gives a salt, the structure may show the parent alone.

What follows are molecules tested against T1, human D3 dopamine receptors (Homo sapiens, UniProt P35462) (assay: biochemical). Settings: human D3 receptor; CHO cell membranes, 0.1 nM [125I] iodosulpride, 30 min at 37°C.
T1 construct: expressed in transfected cells; host or cells: CHO cells (crude cell membranes)
T1 sequence (P35462 whole entry): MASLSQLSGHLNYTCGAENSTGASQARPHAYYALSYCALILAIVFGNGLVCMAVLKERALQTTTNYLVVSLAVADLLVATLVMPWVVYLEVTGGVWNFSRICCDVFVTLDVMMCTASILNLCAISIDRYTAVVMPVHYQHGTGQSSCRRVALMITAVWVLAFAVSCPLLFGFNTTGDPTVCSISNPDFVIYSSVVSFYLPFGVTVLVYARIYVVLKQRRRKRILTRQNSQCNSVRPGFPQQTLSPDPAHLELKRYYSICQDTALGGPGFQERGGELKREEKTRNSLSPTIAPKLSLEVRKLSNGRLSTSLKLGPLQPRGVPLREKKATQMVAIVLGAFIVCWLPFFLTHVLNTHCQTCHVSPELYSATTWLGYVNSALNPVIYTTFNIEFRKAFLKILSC
Assay type: binding
Experimental: Cultures were grown as monolayers or in suspension in standard cell culture media. Cells were recovered by scraping (from monolayers) or by centrifugation (from suspension cultures), and were washed two or three times by suspension in phosphate buffered saline followed by collection by centrifugation. Cell pellets were stored frozen at -40°C. Crude cell membranes were prepared by homogenisation followed by high-speed centrifugation, and characterisation of cloned receptors achieved by radioligand binding.
Cell pellets were gently thawed at room temperature, and resuspended in about 20 volumes of ice-cold 50 mM Tris salts (pH 7.4 @ 37°C), 20mM EDTA, 0.2 M sucrose. The suspension was homogenised using an Ultra-Turrax (TM) at full speed for 15 sec. The homogenate was centrifuged at 18,000 r.p.m for 20 min at 4°C in a Sorvall RC5C centrifuge. The membrane pellet was resuspended in ice-cold 50 mM Tris salts (pH 7.4 @ 37°C), using an Ultra-Turrax (TM), and recentrifuged at 18,000 r.p.m for 15 min at 4°C in a Sorvall RC5C. The membranes were washed two more times with ice-cold 50 mM Tris salts (pH 7.4 @ 37°C). The final pellet was resuspended in 50 mM Tris salts (pH 7.4 @ 37°C), and the protein content determined using bovine serum albumin as a standard (Bradford, M. M. (1976) Anal. Biochem. 72, 248-254).
Crude cell membranes were incubated with 0.1 nM [^125I] iodosulpride (∼2000 Ci/mmol; Amersham, U. K.), and the test compound in a buffer containing 50 mM Tris salts (pH 7.4 @ 37°C), 120 mM NaCl, 5 mM KCl, 2 mM CaCl2, 1 mM MgCl2, 0.1% (w/v) bovine serum albumin, in a total volume of 1 ml for 30 min at 37°C. Following incubation with the test compound, samples were filtered using a Brandel Cell Harvester (TM), and washed three times with ice-cold 50 mM Tris salts (pH 7.4 @ 37°C), 120 mM NaCl, 5 mM KCl, 2 mM CaCl2, 1 mM MgCl2. The radioactivity on the filters was measured using a Cobra (TM) gamma counter (Canberra Packard). Non-specific binding was defined as the radioligand binding remaining after incubation in the presence of 100 µM iodosulpride. For competition curves, 14 concentrations (half-log dilutions) of competing cold drug were used.
Competition curves were analysed simultaneously whenever possible using non-linear least-squares fitting procedures, capable of fitting one, two or three site models.

Row | SMILES | IC50 [µM]
1 | CCS(=O)(=O)c1ccc(OC)c(-c2ccc(CN3CCCCC[C@H]3c3ccccc3)[nH]2)c1 [Example 11, 2-(5-Ethylsulphonyl-2-methoxyphenyl)-5-(1-(2-(S)-phenylazacycloheptyl)methyl)-1H-pyrrole, oxalate] | 0.001 to 0.05
2 | CCS(=O)(=O)c1ccc(OC)c(-c2ccc(CN3CCCCCC3c3ccccc3)[nH]2)c1 (racemic) [Example 3, 2-(5-Ethylsulphonyl-2-methoxyphenyl)-5-(1-(2-(R,S)-phenylazacycloheptyl)-methyl)-1H-pyrrole, hydrochloride] | 0.001 to 0.05
3 | COc1ccc(S(=O)(=O)N2CCOCC2)cc1-c1ccc(CN2CCCCC[C@@H]2c2ccccc2)[nH]1 [Example 13, 2-(2-Methoxy-5-(4-morpholinyl)sulphonylphenyl)-5-(1-(2-(R)-phenylazacycloheptyl)methyl)-1H-pyrrole, oxalate] | 0.001 to 0.05
4 | CCS(=O)(=O)c1cc(Br)c(OC)c(-c2ccc(CN3CCCCCC3c3ccccc3)[nH]2)c1 (racemic) [Example 6, 2-(3-Bromo-5-ethylsulphonyl-2-methoxyphenyl)-5-(1-(2-(R,S)-phenylazacycloheptyl)methyl)-1H-pyrrole, hydrochloride] | 0.001 to 0.05
5 | CCS(=O)(=O)c1ccc(OC)c(-c2ccc(CN3CCCCC[C@@H]3c3ccccc3)[nH]2)c1 [Example 10, 2-(5-Ethylsulphonyl-2-methoxyphenyl)-5-(1-(2-(R)-phenylazacycloheptyl)methyl)-1H-pyrrole, oxalate] | 0.001 to 0.05
